Results taken from patent publication US20050025727A1, “Natural sunlight photostable composition” (priority 2003, published 2005).

Test: Photostability in natural sunlight: residual sunscreen active by HPLC, 2 mg/cm^2 film on microscope slides
Type: physicochemical
Conditions: for Residual Octisalate, Residual %: natural sunlight as in Example 1, formula not named (context: Formula 5)
Protocol: As described above, a sunscreen composition of SPF X is considered to be “photostable” when at least 70%, preferably at least 75%, more preferably at least 80% of each sunscreen active in the composition remains after exposure of the composition to Y SEDS of natural sunlight, where Y is about ½ X. “Photostability” is assessed by (i) assaying the pre-UVR exposure concentration of each sunscreen active present in the sunscreen composition by high-performance liquid chromatography (“HPLC”); (ii) applying a sample of the sunscreen composition at a concentration of 2 mg/cm^2 (a standard concentration used in SPF testing) to a non-coated microscope slide or similar non-reactive surface (e.g., glass or quartz plate); (iii) irradiating the sample in natural sunlight according to a dosing regimen as illustrated in Table 1; (iv) assaying the concentration of each sunscreen active post-UVR exposure. More specifically, after the desired UVR exposure, each slide is removed from sunlight and placed in a sealed Blue Max™ polypropylene conical tube (Becton Dickinson) or similar container, and stored in an area to prevent further exposure to natural sunlight. When an irradiation series is completed, the residual content of each sunscreen active is determined via HPLC, such as the Perkin Elmer Model 200, equipped with a 785 UVN detector, and a C18 column. A detector wavelength of 310 nm and an eluent solution of […] may be used. The sunscreen composition is extracted from the slide with isopropanol or other suitable solvent and sonicated for a minimum of 10 minutes to completely solubilize the sunscreen actives. The solution is then filtered with a 0.45 um GHP13 mm syringe filter. The above analytical procedure may be modified in a manner that would be obvious to the person of ordinary skill in the art. To compare the photostability of Formulas 1 and 2, a uniform 2 mg/cm^2 film of sunscreen product was placed on multiple microscope slides. The slides were exposed to direct sunlight for time intervals corresponding to 1, 2, 4, 8, and 16 SEDs as measured by a Solar Light PMA 2100 detector. (Unless otherwise indicated, all sunlight exposures were in Ormond Beach, Fla.). Slides were removed from the sun after the desired exposure and stored in Blue Max™ polypropylene conical tubes. Upon completion of the test series, samples were dissolved in a suitable solvent, sonicated and then assayed via HPLC. Unless otherwise indicated, all assays were performed by HPLC with oxybenzone, if present, as the internal standard.

In the case of `CCCCC(CC)COC(=O)c1ccccc1O` (stereo not drawn) [Octisalate], the “Photostability of octisalate” value (exposed to natural sunlight as in Example 1) is reported as “photolabile”, the “Residual Octisalate, Residual %” value (1 SED) is reported as 96% and the “Residual Octisalate, Residual %” value (2 SEDs) is reported as 100%. The “Residual Octisalate, Residual %” value (4 SEDs) was 92%, the “Residual Octisalate, Residual %” value (8 SEDs) was 80% and the “Residual Octisalate, Residual %” value (16 SEDs) was 55%.
